Columns and labels:
thyrotropin release = assay: thyrotropin releasing hormone activity (TS, thyrotropin stimulation), in vivo assay; details: multiple of the control TS activity of TRH, which has the value 1
Experimental: (§1) The tripeptides of the present invention are found to have anti-depressant activity and thyrotropin releasing hormone activity. Their activity as anti-depressants is as central nervous system (CNS) stimulants and was determined by testing representative tripeptides of the present invention using in vivo assay based on restoration of anti-convulsant action of methazolamide in picolinic acid treated mice. The thyrotropin releasing hormone activity of the present tripeptides was determined using the in vivo assay substantially as described in "Vitamins and Hormone" R.S. Harris et al, 29, 3-4 (1971).
(§2) The following table contains activity data for a number of representative peptides of the present invention. The protocols used to obtain the data were those described above. The results are expressed numerically as multiples of the TS (thyrotropin stimulation) and AD (anti-depressant) activity compared to the control TS and AD activities of TRH which have the value 1. The designation S.N. is used to indicate substantially no detectable activity at the dosage level tested.

[1] = tested on: picolinic acid treated mice; assay: anti-depressant (CNS stimulant) activity: restoration of anti-convulsant action of methazolamide in picolinic acid treated mice; details: multiple of the control AD activity of TRH, which has the value 1, in vivo
Experimental: as §1, §2

Structure (SMILES): NC(=O)[C@@H]1CCCN1C(=O)[C@H](Cc1c[nH]cn1)NC(=O)[C@@H]1CCC(=O)N1 [TRH, L-pyroglutamyl-L-histidyl-L-proline amide]
- TS (thyrotropin stimulation) activity (thyrotropin release): 1
- AD (anti-depressant) activity [1]: 1
